Experimental data from the NIST ThermoML archive (doi:10.1016/j.fluid.2015.09.030).
± gives the expanded uncertainty stated by the source.

Conditions: Liquid, Ebulliometric method (Recirculating still)

Structure (SMILES): c1ccccc1 [benzene]
- vapor or sublimation pressure (353.15 K): 101.33 ± 0.46 kPa

Structure (SMILES): Cc1ccc(C)s1 [2,5-dimethylthiophene]
- vapor or sublimation pressure (409.96 K): 101.33 ± 0.46 kPa

Structure (SMILES): CCc1cccs1 [2-ethylthiophene]
- vapor or sublimation pressure (407.14 K): 101.33 ± 0.46 kPa

Structure (SMILES): CCCCCCCCCC [decane]
- vapor or sublimation pressure (447.46 K): 101.33 ± 0.46 kPa

Structure (SMILES): CCO [ethanol]
- vapor or sublimation pressure (351.45 K): 101.33 ± 0.46 kPa

Structure (SMILES): Cc1cc(C)cc(C)c1 [1,3,5-trimethylbenzene]
- vapor or sublimation pressure (437.83 K): 101.33 ± 0.46 kPa
